Source: PubChem BioAssay (NCI)
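Dose response: 5 concentrations. Exposure: 48 h. Format: 96-well plates. Endpoint: linear interpolation; highest concentration if not reached. At the TGI there is no net growth.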

Experiments:
Test in all cases: inhibition of tumour cell growth, NCI panel, 48 h
[1] = test system: NCI-H23 lung
[2] = test system: NCI-H460 lung
[3] = test system: M14 melanoma
[4] = test system: KM12 colon
[5] = test system: HL-60(TB) leukemia
[6] = test system: HCT-116 colon
[7] = test system: HOP-92 NSCLC
[8] = test system: SK-MEL-2 melanoma
[9] = test system: EKVX NSCLC
[10] = test system: MCF7 breast
[11] = test system: SF-295 CNS
[12] = test system: UO-31 renal
[13] = test system: RPMI-8226 leukemia
[14] = test system: MDA-MB-231 breast
[15] = test system: DU-145 prostate
[16] = test system: SK-OV-3 ovarian
[17] = test system: T-47D breast
[18] = test system: OVCAR-3 ovarian
[19] = test system: A549 NSCLC
[20] = test system: BT-549 breast
[21] = test system: RXF 393 renal
[22] = test system: SW-620 colon
[23] = test system: OVCAR-4 ovarian
[24] = test system: HT29 colon
[25] = test system: SF-268 CNS
[26] = test system: HS 578T breast
[27] = test system: SNB-19 CNS
[28] = test system: SK-MEL-28 melanoma
[29] = test system: PC-3 prostate
[30] = test system: UACC-62 melanoma
[31] = test system: U251 CNS
[32] = test system: HOP-62 NSCLC
[33] = test system: HCC-2998 colon
[34] = test system: CCRF-CEM leukemia
[35] = test system: IGROV1 ovarian
[36] = test system: OVCAR-8 ovarian
[37] = test system: ACHN renal
[38] = test system: MDA-MB-435
[39] = test system: NCI-H522 lung
[40] = test system: COLO 205 colon
[41] = test system: TK-10 renal
[42] = test system: NCI/ADR-RES ovarian
[43] = test system: SR leukemia
[44] = test system: OVCAR-5 ovarian
[45] = test system: K-562 leukemia
[46] = test system: MDA-N
[47] = test system: SN12C renal
[48] = test system: LOX IMVI melanoma
[49] = test system: UACC-257 melanoma
[50] = test system: 786-0 renal
[51] = test system: MOLT-4 leukemia
[52] = test system: MALME-3M melanoma
[53] = test system: A498 renal
[54] = test system: SNB-75 CNS
[55] = test system: SK-MEL-5 melanoma
[56] = test system: CAKI-1 renal
[57] = test system: HCT-15 colon
[58] = test system: NCI-H226 lung
[59] = test system: SF-539 CNS

## Cc1cc(=O)[nH]c(Sc2ccc([N+](=O)[O-])cc2[N+](=O)[O-])n1
[1]
  TGI: 41.1 µM
[2]
  TGI: > 59.5 µM
[3]
  TGI: 32.3 µM
[4]
  TGI: > 67.4 µM
[5]
  TGI: 11.3 µM
[6]
  TGI: > 34.6 µM
[7]
  TGI: 19.2 µM
[8]
  TGI: 46.4 µM
[9]
  TGI: > 57.2 µM
[10]
  TGI: 64.2 µM
[11]
  TGI: > 76.4 µM
[12]
  TGI: 37.1 µM
[13]
  TGI: 18.7 µM
[14]
  TGI: 46.9 µM
[15]
  TGI: 43.5 µM
[16]
  TGI: > 100 µM
[17]
  TGI: 43 µM
[18]
  TGI: 31.2 µM
[19]
  TGI: 40.2 µM
[20]
  TGI: 26.8 µM
[21]
  TGI: 26.1 µM
[22]
  TGI: 18.1 µM
[23]
  TGI: > 56.1 µM
[24]
  TGI: 19.1 µM
[25]
  TGI: > 54.3 µM
[26]
  TGI: > 63.4 µM
[27]
  TGI: > 66.8 µM
[28]
  TGI: 38.4 µM
[29]
  TGI: 49.7 µM
[30]
  TGI: 41.4 µM
[31]
  TGI: 46.3 µM
[32]
  TGI: > 58.5 µM
[33]
  TGI: 30.6 µM
[34]
  TGI: 23.1 µM
[35]
  TGI: > 100 µM
[36]
  TGI: 30 µM
[37]
  TGI: 38.4 µM
[38]
  TGI: > 55.1 µM
[39]
  TGI: 22.9 µM
[40]
  TGI: 15.7 µM
[41]
  TGI: 29.6 µM
[42]
  TGI: > 66.3 µM
[43]
  TGI: > 100 µM
[44]
  TGI: 35.2 µM
[45]
  TGI: > 100 µM
[46]
  TGI: 40.8 µM
[47]
  TGI: 28.3 µM
[48]
  TGI: 8.67 µM
[49]
  TGI: 44.7 µM
[50]
  TGI: 32.9 µM
[51]
  TGI: > 100 µM
[52]
  TGI: 35.7 µM
[53]
  TGI: > 100 µM
[54]
  TGI: 39.9 µM
[55]
  TGI: 31.3 µM
[56]
  TGI: 28.9 µM
[57]
  TGI: 28.4 µM
[58]
  TGI: 40.9 µM

## CCCCCCCCCCCCCC/C(C(=O)O)=C(\C)C(=O)O
[1]
  TGI: > 100 µM
[2]
  TGI: > 100 µM
[3]
  TGI: > 100 µM
[4]
  TGI: > 100 µM
[5]
  TGI: > 100 µM
[6]
  TGI: > 100 µM
[7]
  TGI: > 100 µM
[8]
  TGI: > 100 µM
[9]
  TGI: > 100 µM
[10]
  TGI: > 100 µM
[11]
  TGI: > 100 µM
[12]
  TGI: > 100 µM
[13]
  TGI: > 100 µM
[14]
  TGI: > 100 µM
[15]
  TGI: > 100 µM
[16]
  TGI: > 100 µM
[17]
  TGI: > 100 µM
[18]
  TGI: > 100 µM
[19]
  TGI: > 100 µM
[20]
  TGI: > 100 µM
[21]
  TGI: > 100 µM
[22]
  TGI: > 100 µM
[23]
  TGI: > 100 µM
[24]
  TGI: > 100 µM
[25]
  TGI: > 100 µM
[59]
  TGI: > 100 µM
[26]
  TGI: > 100 µM
[27]
  TGI: > 100 µM
[28]
  TGI: > 100 µM
[29]
  TGI: > 100 µM
[30]
  TGI: > 100 µM
[31]
  TGI: > 100 µM
[32]
  TGI: > 100 µM
[33]
  TGI: > 100 µM
[34]
  TGI: > 100 µM
[35]
  TGI: > 100 µM
[36]
  TGI: > 100 µM
[37]
  TGI: > 100 µM
[38]
  TGI: > 100 µM
[39]
  TGI: > 100 µM
[40]
  TGI: > 100 µM
[41]
  TGI: > 100 µM
[42]
  TGI: > 100 µM
[43]
  TGI: > 100 µM
[44]
  TGI: > 100 µM
[45]
  TGI: > 100 µM
[46]
  TGI: > 100 µM
[47]
  TGI: > 100 µM
[48]
  TGI: > 100 µM
[49]
  TGI: > 100 µM
[50]
  TGI: > 100 µM
[51]
  TGI: > 100 µM
[52]
  TGI: > 100 µM
[53]
  TGI: > 100 µM
[54]
  TGI: > 100 µM
[55]
  TGI: > 100 µM
[57]
  TGI: > 100 µM
[58]
  TGI: > 100 µM

## O=C(Cc1ccccc1)Nc1nc2ccc(Cl)cc2c2nc(-c3ccco3)nn12
[1]
  TGI: > 100 µM
[2]
  TGI: > 100 µM
[3]
  TGI: > 100 µM
[4]
  TGI: > 100 µM
[5]
  TGI: > 100 µM
[6]
  TGI: > 100 µM
[7]
  TGI: 57.1 µM
[8]
  TGI: > 100 µM
[9]
  TGI: > 100 µM
[10]
  TGI: > 100 µM
[11]
  TGI: > 100 µM
[12]
  TGI: > 100 µM
[13]
  TGI: > 100 µM
[14]
  TGI: > 100 µM
[15]
  TGI: > 100 µM
[16]
  TGI: > 100 µM
[17]
  TGI: > 100 µM
[18]
  TGI: > 100 µM
[19]
  TGI: > 100 µM
[20]
  TGI: > 100 µM
[21]
  TGI: 59.7 µM
[22]
  TGI: > 100 µM
[24]
  TGI: > 100 µM
[25]
  TGI: > 100 µM
[59]
  TGI: > 60.5 µM
[26]
  TGI: > 100 µM
[27]
  TGI: > 55.6 µM
[28]
  TGI: > 100 µM
[29]
  TGI: > 100 µM
[30]
  TGI: > 100 µM
[31]
  TGI: > 100 µM
[32]
  TGI: > 62.4 µM
[33]
  TGI: > 100 µM
[34]
  TGI: > 100 µM
[35]
  TGI: > 100 µM
[36]
  TGI: > 100 µM
[37]
  TGI: > 100 µM
[38]
  TGI: > 100 µM
[39]
  TGI: > 100 µM
[40]
  TGI: > 100 µM
[41]
  TGI: > 75.3 µM
[42]
  TGI: > 100 µM
[43]
  TGI: > 77.2 µM
[44]
  TGI: > 100 µM
[45]
  TGI: > 100 µM
[46]
  TGI: > 100 µM
[47]
  TGI: > 100 µM
[48]
  TGI: > 100 µM
[49]
  TGI: > 100 µM
[50]
  TGI: > 100 µM
[51]
  TGI: > 100 µM
[52]
  TGI: > 100 µM
[53]
  TGI: > 100 µM
[54]
  TGI: > 54.2 µM
[55]
  TGI: > 100 µM
[56]
  TGI: > 100 µM
[57]
  TGI: > 100 µM
[58]
  TGI: > 82.7 µM

## CNC(=O)OCC1=C(COC(=O)NC)CN(c2ccc(OC)cc2)C1
[1]
  TGI: > 100 µM
[2]
  TGI: > 100 µM
[3]
  TGI: > 100 µM
[4]
  TGI: > 100 µM
[5]
  TGI: > 100 µM
[6]
  TGI: > 100 µM
[7]
  TGI: > 100 µM
[8]
  TGI: > 100 µM
[9]
  TGI: > 100 µM
[10]
  TGI: > 100 µM
[11]
  TGI: > 100 µM
[12]
  TGI: > 100 µM
[13]
  TGI: > 100 µM
[14]
  TGI: > 100 µM
[15]
  TGI: > 100 µM
[16]
  TGI: > 100 µM
[17]
  TGI: > 100 µM
[18]
  TGI: > 100 µM
[19]
  TGI: > 100 µM
[20]
  TGI: > 100 µM
[21]
  TGI: > 100 µM
[22]
  TGI: > 100 µM
[23]
  TGI: > 100 µM
[24]
  TGI: > 100 µM
[25]
  TGI: > 100 µM
[59]
  TGI: > 100 µM
[26]
  TGI: > 100 µM
[27]
  TGI: > 100 µM
[28]
  TGI: > 100 µM
[29]
  TGI: > 100 µM
[30]
  TGI: > 100 µM
[31]
  TGI: > 100 µM
[32]
  TGI: > 100 µM
[33]
  TGI: > 100 µM
[34]
  TGI: > 100 µM
[35]
  TGI: > 100 µM
[36]
  TGI: > 100 µM
[37]
  TGI: > 100 µM
[38]
  TGI: > 100 µM
[40]
  TGI: > 100 µM
[41]
  TGI: > 100 µM
[42]
  TGI: > 100 µM
[43]
  TGI: > 100 µM
[44]
  TGI: > 100 µM
[45]
  TGI: > 100 µM
[46]
  TGI: > 100 µM
[47]
  TGI: > 100 µM
[48]
  TGI: > 100 µM
[49]
  TGI: > 100 µM
[50]
  TGI: > 100 µM
[51]
  TGI: > 100 µM
[52]
  TGI: > 100 µM
[53]
  TGI: 3.9 µM
[54]
  TGI: > 100 µM
[55]
  TGI: > 100 µM
[57]
  TGI: > 100 µM
[58]
  TGI: 41.1 µM
